Data reported in US7078225B2, “Method for enzymatically producing an optically active cyanohydrin” (Nippon Shokubai Co., Ltd., priority 2000, dated 2006).

Tested on: (R)-hydroxynitrile lyase
Experiment: Effect of reaction inhibitor in the aldehyde on enzymatic synthesis of (R)-2-chloromandelonitrile (conversion by HPLC after five hours)
Assay type: biochemical, almond (Prunus amygdalus)
Details: 1 M aldehyde, 1.5 M prussic acid, immobilized enzyme 600 units, t-butyl methyl ether saturated with citrate buffer pH 5.5, five hours
Protocol: 2-chlorobenzaldehyde containing undetectable 2-chlorobenzoic acid (reaction inhibitor) was dissolved in t-butyl methyl ether saturated with 0.15 M citrate buffer (pH 5.5) to prepare a 1 M solution of 2-chlorobenzaldehyde. To this solution, 2-chlorobenzoic acid was added in different amounts to prepare aldehyde solutions of varying 2-chlorobenzoic acid contents.
Immobilized (R)-hydroxynitrile lyase (600 units) was introduced into 5 mil of each solution, and prussic acid was then added to reach 1.5 M, followed by synthesis of (R)-2-chloromandelonitrile. Five hours after initiation of the reaction, an aliquot of the reaction mixture was sampled to measure the conversion ratio of aldehyde by HPLC.

**Q.** `O=C(O)c1ccccc1Cl` [2-chlorobenzoic acid] was tested. Which “inhibition of the enzyme reaction” value (0.5 wt % 2-chlorobenzoic acid added to 2-chlorobenzaldehyde) did it give?
**A.** Its value is “about 30%”.

**Q.** What about the “inhibition of the enzyme reaction” value (1.1 wt % 2-chlorobenzoic acid added to 2-chlorobenzaldehyde) of the same compound?
**A.** The value was “about 50%”.
